{"source": "patent US20260231968A1", "about": "“AN ECO-FRIENDLY, SUSTAINABLE FOOD PRESERVATIVE” (priority 2023, published 2026)", "molecules": {"B1": {"name": "S100a8: Recombinant S100 protein; human S100a8 sequence SEQ ID NO: 3 (protein, listed as Homo sapiens)", "chain": "MLTELEKALNSIIDVYHKYSLIKGNFHAVYRDDLKKLLETECPQYIRKKGADVWFKELDINTDGAVNFQEFLILVIKMGVAAHKKSHEESHKE"}, "B2": {"name": "S100a9: Recombinant S100 protein; human S100a9 sequence SEQ ID NO: 4 (protein, listed as Homo sapiens)", "chain": "MTCKMSQLERNIETIINTFHQYSVKLGHPDTLNQGEFKELVRKDLQNFLKKENKNEKVIEHIMEDLDTNADKQLSFEEFIMLMARLTWASHEKMHEGDEGPGHHHKPGLGEGTP"}, "B3": {"name": "S100a12: S100 protein; human S100a12 sequence SEQ ID NO: 6 (protein, listed as Homo sapiens)", "chain": "MTKLEEHLEGIVNIFHQYSVRKGHFDTLSKGELKQLLTKELANTIKNIKDKAVIDEIFQGLDANQDEQVDFQEFISLVAIALKAAHYHTHKE"}}, "key": {"Aspergillus flavus": {"test_system": "Aspergillus flavus", "experiment": "Microbial Growth Inhibition Test, broth microdilution optical method", "format": "cell-based", "conditions": "12 μM", "method": "The IC90 of psoriasin for several microorganisms was determined by Microbial Growth Inhibition Tests. The tests were performed using the Broth Microdilution Optical Method based on standardized protocols M27 (yeasts) and M38 (filamentous fungi) of the Clinical and Laboratory Standards Institute. […] MOPS, LB (Luria-Bertani), and TSB ([…]) medium types were used, depending on the species being tested. The absorbance was calibrated to each species, and was measured between 450 nm to 650 nm.\nIn addition, ethyl lauroyl arginate (LAE), a commercially available food preservative, was tested in similar growth conditions as a reference."}, "[1]": {"test_system": "initial microbial load of plant-based meat substitute", "experiment": "Microbial load of plant-based meat substitute during storage", "format": "cell-based", "method": "The ability of psoriasin to extend the shelf life of a plant-based meat substitute was examined under standard storage conditions. Three groups, each stored as an open package at […], were assessed over the course of 16 days. The groups included i) an untreated control, ii) a nisin-treated sample, and iii) a psoriasin-treated sample at 0.65%. A single source of the plant-based meat substitute was used and each group was reproduced in triplicate. The microbial load of the plant-based meat substitute samples was based on the initial microbial load without the addition of antibiotics and without the addition of mold, yeast or bacteria. Samples from each group were taken on days 1, 3, 5, 10, 11 and 16 and total CFU count was determined by plating on LB and PDA agar petri dishes."}, "E. coli BL21 cells": {"test_system": "E. coli BL21 cells", "experiment": "E. coli growth in LB with S100a8 / S100a9", "format": "cell-based", "conditions": "37° C; for inhibition of E. coli growth: 0.18 μM to 50 μM", "method": "E. coli cells in LB media were incubated in a 96-well plate at 37° C. with S100a8 (FIG. 10A) or S100a9 (FIG. 10B) at concentrations varying from 0.18 μM to 50 μM. Optical density was measured every 10 minutes by absorbance at 600 nm over the course of approximately 19 hours. […] In addition, the same experiment was performed using varying equimolar concentrations of S100a8 and S100a9 that were pre-incubated for two hours at 4° C. under constant shaking."}, "C. albicans": {"test_system": "C. albicans", "experiment": "C. albicans growth in RPMI-MOPS with S100a12", "format": "cell-based, Candida albicans", "conditions": "30° C, approximately 19 hours", "method": "C. albicans cells in RPMI-MOPS were incubated in a 96-well plate at 30° C. with S100a12 at concentrations of 0.32, 2.5, 5 and 20 μM (FIG. 11). Optical density was measured every 10 minutes by absorbance at 600 nm over the course of approximately 19 hours."}}, "data": [{"molecule": "CCCCCCCCCCCC(=O)N[C@@H](CCCN=C(N)N)C(=O)OCC", "note": "[LAE, ethyl lauroyl arginate, reference compound]", "values": [{"measurement": "inhibition of A. flavus growth", "setting": "Aspergillus flavus", "result": "approximately 40%"}]}, {"molecule": "nisin [reference compound]", "values": [{"measurement": "Yeast & Mold Count", "setting": "[1]; Day 1", "result": "2 × 10^2"}, {"measurement": "Total CFU count", "setting": "[1]; Day 1, open package, psoriasin 0.65%", "result": "1.2 × 10^4 CFU"}, {"measurement": "Total CFU count", "setting": "[1]; Day 3", "result": "1.2 × 10^4 CFU"}, {"measurement": "Yeast & Mold Count", "setting": "[1]; Day 3", "result": "2 × 10^2"}, {"measurement": "Total CFU count", "setting": "[1]; Day 5", "result": "5 × 10^4 CFU"}, {"measurement": "Yeast & Mold Count", "setting": "[1]; Day 5", "result": "1.4 × 10^3"}, {"measurement": "Total CFU count", "setting": "[1]; Day 10", "result": "1.8 × 10^8 CFU"}, {"measurement": "Yeast & Mold Count", "setting": "[1]; Day 10", "result": "1.47 × 10^4"}, {"measurement": "Total CFU count", "setting": "[1]; Day 11", "result": "2.35 × 10^8 CFU"}, {"measurement": "Yeast & Mold Count", "setting": "[1]; Day 11", "result": "1.46 × 10^4"}, {"measurement": "Total CFU count", "setting": "[1]; Day 16", "result": "1.28 × 10^10 CFU"}, {"measurement": "Yeast & Mold Count", "setting": "[1]; Day 16", "result": "3.2 × 10^4"}]}, {"molecule": "B1", "values": [{"measurement": "inhibition of E. coli growth", "setting": "E. coli BL21 cells", "result": "Inhibit Growth of E. coli BL21 Cells"}, {"measurement": "concentration giving full inhibition of E. coli growth", "setting": "E. coli BL21 cells; approximately 19 hours, OD 600 nm", "result": "≤ 1.5", "unit": "µM"}]}, {"molecule": "B2", "values": [{"measurement": "inhibition of E. coli growth", "setting": "E. coli BL21 cells", "result": "Inhibit Growth of E. coli BL21 Cells"}]}, {"molecule": "B3", "values": [{"measurement": "concentration with significant inhibition of C. albicans growth", "setting": "C. albicans", "result": "≥ 0.32", "unit": "µM"}]}]}
